Where only a bound is given, the exact number is not on record here.

Data set [1] has as its system KG1 (acute myelogenous leukemia) and HL60 (Human promyelocytic leukemia cells) cell lines. The data set is described as follows: Cell viability of AML cell lines (MTT / WST-1 assay). Type of data set: cell-based. Conditions: for cell viability of KG1 and HL60 cell lines as compared to untreated control cells: WIN-55 0.5-50 uM, JWH-133 0.05-1 mM; for concentration from which the cell viability decrease occurs with statistically significant data: FIG. 12 / FIG. 13. The method, then: Human acute myeloid leukemia cell line KG-1 and human acute promyelocytic leukemia cell line HL60 (American Type Culture Collection) were cultured RPMI 1640 medium (Gibco™, Invitrogen, Barcelona, Spain) with 2 mM L-glutamine, 100 IU/m1 penicillin and 100 ug/ml streptomycin (all from Sigma-Aldrich, St. Louis, Mo., USA), and supplemented with 10% (HL60 cell line) or 20% (KG1 cell line and human primary cells) fetal bovine serum [(FBS), [Thermo Fisher Scientific (Waltham, Mass., USA)] in a humidified atmosphere of CO2/air (5%/95%).
The cannabinoid agonists WIN-55,212-2 mesylate ((R)-(+)-[2,3-dihydro-5-methyl-3-(4-morpholinylmethyl)-pyrrolo-[1,2,3]-1,4-benzoxazin-6-yl]-1-naphthalenylmethanone mesylate) and JWH-133 ((6aR,10aR)-3-(1,1-Dimethylbutyl)-6a,7,10,10a-tetrahydro-6,6,9-trimethyl-6H-dibenzo [b,d] pyran) were purchased from Tocris Bioscience (Bristol, UK) and they was added in the indicated concentrations to culture medium for different incubation periods. Control cells were cultured with the relevant amounts of DMSO.
(§1) Cells lines, CD34+ cells and blast were cultured in 96-well plates (5×10e5 cells per well) with the addition of the indicated concentrations of WIN 55,212-2 or JWH-133 in DMSO or with the solvent alone in triplicate. Also we add myoricin together the cannabinoid WIN-55 to see if this effect reversed. Cell viability was determined by the WST-1 [2-(4-lodophenyl)-3-(4-nitrophenyl)-5-(2,4-disulfophenyl)-2H-tetrazolium] assay as per the manufacturer's instructions (Dojindo Molecular Technologies). Optical densities were measured at 450 nm using a plate reader Multiskan™ Go Microplate (Thermo Fisher Scientific, Waltham, Mass., USA).
Firstly, we assessed the effect of cannabinoids WIN-55 and JWH-133 on cell viability. To this end, the cells were treated with increasing concentrations of cannabinoids, WIN-55 (0.5-50 uM) and JWH-133 (0.05-1 mM), for 18 and 48, and viability was analyzed by MTT assays.

For data set [2], the system named is CD34+ hematopoietic stem cells. Put plainly: Cell viability of CD34+ hematopoietic stem cells, Example 2 (MTT). Format: cell-based, human.
From the text: Human primary cells were obtained from LMA patients' bone marrow (BM) and healthy donors' peripheral blood (PB). Hematopoietic progenitor cells (CD34+) were isolated from leukaphesesis samples, and B (CD19+) and T (CD3+) lymphocytes from buffy coats by positive immunomagnetic separation in the AutoMACS pro separator (Miltenyi Biotec, Bergisch Gladbach, Germany). For this purpose CD34-, CD19- and CD3-MACS microbead Human Kit (Miltenyi Biotec, Bergisch Gladbach, Germany).
as §1
Stem cells were treated with WIN-55 or JWH-133 and cell viability was analyzed using MTT assay.

Data set [3] relates to U266 cells. Put plainly: Western blot time course of apoptotic proteins in U266 cells. Format: cell-based, human. How it is done:
Protein analyses were performed by Western blot in several sets of assays: expression pattern of CBs-receptors in MM cell lines and primary cells, and time course after treatment with cannabinoids in MM cell lines. Time-course assays were performed at 0, 2, 6, 18 and 24 hours. Anyway, obtaining cell lysates was conducted according to a protocol adapted to phosphorylation-dependent signaling, described by Gilbert et al. (2002). Briefly, 10e7 cells per condition were harvested at indicated times, washed with iced-cold PBS and lysate in isotonic lysis buffer 30 min keeping on ice. Isotonic lysis buffer contained 2% ASB-14 (CalbioChem, San Diego, Calif., USA),1% Nonidet P-40 (Ipegal®), 137 mM NaCl, 20mM Tris-HCl pH 7.5 at 4° C. (all from Sigma-Aldrich), 2 mM Na3VO4, 20 mM NaF (New England BioLabs Inc., Ipswich, Mass., USA), 2 mM DTT (AppliChem, Darmstadt, Germany), protease inhibitor cocktail (Roche Diagnostics GmbH, Mannheim, Germany), and 10 ul Nuclease Mix (Amersham GE Healthcare, Uppsala, Sweden). After lysis, samples were centrifuged at 13,000×g for 5 min at 4° C., and supernatants collected. Protein concentration in samples was determined by Pierce® Microplate BCA Protein Assay kit-Reducing Agent Compatible (Thermo Fisher Scientific). Before loading the samples in the gel, they were diluted in loading sample buffer (0.125 M Tris-HCl pH 6.8, 4% SDS, 20% glycerol, 0.02% Bromophenol Blue, 200 mM DTT) and the mixture was heated at 70° C. for 5 min in a thermoblock (LabNet International, N.J., USA).
Samples (15-25 ug/lane) were subjected to SDS/PAGE in pre-cast polyacrylamide gels AnykD (Bio-Rad Laboratories, Hercules, CA, USA) under reducing and denaturing conditions. Electrophoretic run was performed at a constant current of 15 mA per gel in a Mini-Protean® Tetra Cell (Bio-Rad Laboratories). Once proteins were separated by electrophoresis, were transferred onto PVDF membranes using Trans-Blot® Turbo™ System (Bio-Rad Laboratories). Electrotransference was conducted at constant amperage of 1.2 mA and at up to 25 V of voltage. The blotted membranes were then blocked with 2% bovine serum albumin [(BSA), Santa Cruz Biotechnology] in Tween-Tris buffer saline (TTBS) for 30 min with gentle agitation, and incubated overnight at 4° C. with corresponding primary antibody in TTBS. After twice washing with TTBS, membranes were incubated for 1-2 h at room temperature with suitable conjugated-HRP secondary antibody, and subjected to chemiluminescence detection using Western Blotting Luminol Reagent (Santa Cruz Biotechnology). […]
The antiproliferative effect of cannabinoids is mediated by apoptotic mechanisms. […] Next, we evaluated Casp-3 activation using an antibody that recognizes the active forms of Casp-3, this is, the 17 kDa- and 12 kDa-cleaved forms. […]

As to `CCCC(C)(C)c1ccc2c(c1)OC(C)(C)[C@@H]1CC=C(C)C[C@@H]21` [JWH-133, (6aR,10aR)-3-(1,1-Dimethylbutyl)-6a,7,10,10a-tetrahydro-6,6,9-trimethyl-6H-dibenzo [b,d] pyran], the “cell viability of KG1 and HL60 cell lines as compared to untreated control cells” value in data set [1] (18 h) is reported as “significantly reduced”. Besides, the “concentration from which the cell viability decrease occurs with statistically significant data” value in data set [1] is no less than 500 µM. Further, the “cell viability of CD34+ hematopoietic stem cells” value in data set [2] is “remains unaffected”.

Regarding `CS(=O)(=O)O.Cc1c(C(=O)c2cccc3ccccc23)c2cccc3c2n1[C@H](CN1CCOCC1)CO3` [WIN-55, (R)-(+)-[2,3-dihydro-5-methyl-3-(4-morpholinylmethyl)-pyrrolo-[1,2,3]-1,4-benzoxazin-6-yl]-1-naphthalenylmethanone mesylate], in data set [3] (U266), the “time after exposure at which the 89 kDa PARP fragment became detectable” value is recorded as 2 h. Moreover, the “expression of the two active-cleaved forms of Casp-3 (17 kDa and 12 kDa)” value in data set [3] (U266, time course) is reported as “increased over time”. Further, in data set [3] (U266, time course 0-24 h), the “89 kDa fragment of PARP” value is on record as “increase” and the “full-length PARP” value is “decrease”. In data set [1] (18 h), the “most sensitive AML cell line” value was “HL60 was the most sensitive”; the “cell viability of KG1 and HL60 cell lines as compared to untreated control cells” value is “significantly reduced”. The “concentration from which the cell viability decrease occurs with statistically significant data” value in data set [1] is no less than 500 µM. Besides, the “cell viability of CD34+ hematopoietic stem cells” value in data set [2] was “remains unaffected”.

For the origin of these results see US20180353461A1, “USE OF CANNABINOIDS AS CERAMIDE-GENERATING ANTICANCER AGENTS IN TUMORS OF THE HEMATOPOIETIC AND LYMPHOID TISSUES” (priority 2014, published 2018).
